These results are taken from patent US20160033531A1, “METHOD AND COMPOSITIONS FOR DETECTING BINDING TO THE PREGNANE X RECEPTOR” (ST. JUDE CHILDREN'S RESEARCH HOSPITAL, priority 2013, published 2016).

The target in data set [1] is T1, hPXR (Homo sapiens, UniProt O75469).
T1 construct: literature Invitrogen
T1 sequence (O75469 1-434): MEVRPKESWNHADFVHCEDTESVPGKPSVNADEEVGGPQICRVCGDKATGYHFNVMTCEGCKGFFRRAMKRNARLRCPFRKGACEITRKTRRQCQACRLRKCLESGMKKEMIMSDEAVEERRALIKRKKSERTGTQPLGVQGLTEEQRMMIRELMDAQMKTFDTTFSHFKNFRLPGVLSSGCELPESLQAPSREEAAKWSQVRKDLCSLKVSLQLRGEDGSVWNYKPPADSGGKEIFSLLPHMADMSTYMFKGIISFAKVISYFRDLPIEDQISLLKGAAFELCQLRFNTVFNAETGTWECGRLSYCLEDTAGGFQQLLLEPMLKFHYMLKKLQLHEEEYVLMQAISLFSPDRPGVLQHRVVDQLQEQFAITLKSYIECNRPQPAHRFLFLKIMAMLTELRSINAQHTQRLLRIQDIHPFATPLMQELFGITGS
The settings on record: cited from earlier work; for Activity (Fluormone PXR (SXR) Green as Probe), % at single concentration: 1000 μM, published report (Lau et al.).

The target of data set [2] is T1, hPXR. Nature of the data set: Invitrogen hPXR TR-FRET binding kit, Fluormone PXR (SXR) Green as probe (published reports). The settings on record: calculated from published data by equation 2.
Data set [3] can be described thus: Solubility of test compound in the TR-FRET assay. The settings on record: 100 μM. On the technique in general: TR-FRET usually uses a lanthanide donor and a delayed reading to cut background.
In the next data set the target is T2, GST-PXRLBD (Homo sapiens, UniProt O75469).
T2 construct: GST (N)
T2 sequence (O75469 146-433 limits assumed): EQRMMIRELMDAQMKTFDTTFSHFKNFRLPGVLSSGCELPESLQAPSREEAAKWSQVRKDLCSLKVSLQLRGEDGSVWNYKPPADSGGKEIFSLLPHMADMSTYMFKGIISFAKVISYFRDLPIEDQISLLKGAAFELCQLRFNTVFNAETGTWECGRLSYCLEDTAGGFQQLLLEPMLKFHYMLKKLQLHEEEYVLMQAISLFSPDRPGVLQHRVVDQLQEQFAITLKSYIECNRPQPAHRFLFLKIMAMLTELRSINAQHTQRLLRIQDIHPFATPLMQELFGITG
Kind of data set: Interaction of BODIPY Fl-vindoline with GST-PXRLBD, Kd from specific binding curve. The settings on record: buffer 50 mM Tris, 50 mM KCl, 1 mM CHAPS, 0.1 mg/mL BSA, 0.05 mM DTT, pH 7.5. On the procedure: Assay was performed using a buffer solution containing 50 mM Tris, 50 mM KCl, 1 mM CHAPS, 0.1 mg/mL BSA, and 0.05 mM DTT (pH=7.5).

Broadly, the pKi is the negative decadic logarithm of the Ki, by convention in mol/L. As a reminder, the pIC50 is the IC50 on a negative log10 scale, so that one unit is a factor of ten. Usually pKd stands for the Kd on a negative log10 scale, so that one unit is a factor of ten. High values mean a small Kd, low ones a large Kd.

pIC50, pKd, pKi: −log10 of the molar value. Marks after values point to notes of the source that are not given here.

In the case of `CC1C(=O)OC2C(O)C34C5CC(C(C)(C)C)C36C(OC(=O)C6O)OC4(C(=O)O5)C12O` (stereo not drawn) [Ginkgolide B, ginkgolide B], the “Activity (Fluormone PXR (SXR) Green as Probe), % at single concentration” value on hPXR [1] is listed as 48% (1000 μM)^g.

`Clc1ccccc1C(c1ccccc1)(c1ccccc1)n1ccnc1` [Clotrimazole, clotrimazole]: on hPXR [2], the negative logarithm of the Ki (pKi) is 6.00. For the same molecule, the pIC50 on hPXR [1] (values from published reports, read-out: IC50 (Fluormone PXR (SXR) Green as Probe)) was 5.70. Also, in data set [3], the “Solubility in the assay” value was “incomplete solubility”.

Regarding `C[C@@H]1C(=O)O[C@H]2C[C@@]34[C@H]5C[C@@H](C(C)(C)C)[C@]36[C@@H](OC(=O)[C@@H]6O)O[C@@]4(C(=O)O5)[C@]21O` [Ginkgolide A, ginkgolide A], on hPXR [1], the “Activity (Fluormone PXR (SXR) Green as Probe), % at single concentration” value was 54% (1000 μM)^g.

Molecule `CC[C@]12C=CCN3CC[C@@]4(c5ccc(OC)cc5N(C)[C@H]4[C@@](O)(C(=O)OC)[C@@H]1OC(=O)CCC1=[N+]4C(C=C1)Cc1c(C)cc(C)n1[B-]4(F)F)[C@@H]32` (stereo partly drawn) [BODIPY Fl-vindoline, BODIPY FL vindoline] showed a pKd on GST-PXRLBD of 6.59.
